Measured values from patent US5208032A, “Increasing the growth of turkeys using implant of 19-nortestosterone” (Rutgers, The State University of New Jersey, priority 1992, dated 1993).

Assays:
[1] = Comparison of effects on growth in intact male and female White Leghorn chickens (Study II, Table 1); assay type: in vivo; details: for 6-week Body Weight Change / 12-week Body Weight Change / 12-week Shank-Toe Length Change: 1.0-cm implant, vs cholesterol control, (decrease); for 6-week Body Weight / 12-week Body Weight (final) / 12-week Shank-Toe Length: 1.0-cm s.c. implant
Experimental: The single comb White Leghorn strain (Dekalb XL) of chicken (Avian Services, Frenchtown, N.J.) was used in all studies. Chicks were obtained on the day following hatch and were then maintained in a well ventilated, temperature- and humidity-controlled animal room. Chicks were housed in temperature-controlled (access to small brood chambers--32° to 35° C.), wire-floored, 5-tier brooder batteries (measuring 0.74 W×1.55 L×0.27 H m per tier) until termination of respective studies. A 12 hour light:12 hour dark photoperiod was maintained at all times within the animal room. Feed and water were available ad libitum, with a standard commercial diet (Agway; Bordentown, N.J.), chick starter mash, fed to chicks 1 to 42 days of age, and then from 43 to 84 days, grower mash was provided (manufacturer statement on ration compositions are shown in Table 2).
In all studies, chicks were rank-ordered by weight, wing-banded and distributed into treatment groups of equal body weights at 14 days of age. Excluding Study I, e.g., in which male, female and castrate male comparisons were made, all control groups were implanted with 1.0-cm length cholesterol-filled Silastic polysiloxane implants (i.e., steroid surface exposure of 1.0-cm; actual length was 2.0-cm with 1/2 cm wood dowel plugs placed at each end of implant). The remaining treatment groups consisted of chicks (male, female or castrated male) implanted with either testosterone-, 5-alpha-DHT-, 5-beta-DHT-, estradiol-17-beta-, or 19-nortestosterone-filled Silastic polysiloxane implants with steriod surface exposures of either 0.3, 1.0 or 3.0 cm in length. Steroid implants were prepared by manually packing respective crystalline steroids (Steraloids; Wilton, N.H.) into Silastic Medical Grade tubing (1.57 mm i.d.; Dow Corning) (Smith et al., 1977). The amounts of steroid contained in the implants were as follows (mean±SEM of 20 randomly chosen implants, 5 for each steroid): 2.6±0.2 mg (0.3-cm), 8.9±0.4 mg (1.0-cm), and 29.2±0.7 mg 3.0-cm). At the time of group assignment, implants were placed in the subcutaneous (S.C.) layer of skin behind the neck. Supplemental steroid implants (containing doses of steroids equivalent to those of the initial implants) were implanted at 6 and 10 weeks of age, without removal of prior implants, to ensure adequate androgen replacement with increasing growth. Cage floors and fecal collection trays were checked for 2 consecutive days following each implantation session to ensure completeness of procedure. […] An outline of individual studies along with experimental treatments (i.e., type and dose of steroid) and number of birds per treatment group is given in Table 3.
Body weight and shank-toe length (King, 1969; combined length of metatarsus and longest toe which is an estimate of bone growth) were measured at weekly (or biweekly in Study I) intervals from the beginning through the end of each study. At the termination of studies I (12 weeks of age), III (12 weeks of age), IV (12 weeks of age) and V (6 weeks of age), several organs were excised and immediately weighed at necropsy. Relative tissue weights (percent of final body weight) and body weight minus [comb plus wattle weights] (i.e., final adjusted body weight) were also calculated. Excluding Study I, biweekly blood samples were obtained by venipuncture of the wing vein from the same individual birds for respective treatments. After centrifugation of whole blood, plasma was removed and stored at -20° C. until hormone assays were performed.
^a Steroid treatments entailed the subcutaneous implantation (between
the shoulders) of 1.0 cm length, silastic implants (crystalline steroids
at 2, 6 and 10 weeks of age.)

[2] = Growth promotion and feed efficiency in turkeys (summary in words); assay type: in vivo
Experimental: A presently preferred dosage in the form of such a subcutaneous implant is at least about 20 mg, with a dosage of about 50 mg being highly suitable. It has been found suitable to administer the 19-nortestosterone subcutaneously, for example, below the ear of the turkey, using conventional implanting devices. The dosage can be administered in the form of an implant device which releases the 19-nortestosterone slowly in a desired constant rate, over a period of time such a about 21 days or more. Desirably, the implant can be in the form of a capsule enveloping the 19-nortestosterone which provides the desired slow, constant release or in the form of a polymer mass pellet having encapsulated or dispersed therein 19-nortestosterone so as to permit by diffusion or slow dissolution release subcutaneously and subsequent systemic absorption. It has been found suitably to use silicone rubber as a polymeric encapsulating material.
It is a natural compound.

Structure (SMILES) | 6-week Body Weight Change ([1]; intact female) | 12-week Body Weight Change ([1]; intact female) | 12-week Shank-Toe Length Change ([1]; intact female) | 6-week Body Weight ([1]; intact female) | 12-week Body Weight (final) ([1]; intact female) | 12-week Shank-Toe Length ([1]; intact female) | 6-week Body Weight Change ([1]; intact male) | 12-week Body Weight Change ([1]; intact male) | 12-week Shank-Toe Length Change ([1]; intact male) | 6-week Body Weight ([1]; intact male) | 12-week Body Weight (final) ([1]; intact male) | 12-week Shank-Toe Length ([1]; intact male) | results when used instead of 19-nortestosterone ([2]; turkeys) | results compared with testosterone in turkeys ([2]; Table IV and Table V) | relative amount of fat mass ([2]; turkey carcass) | growth rate and feed efficiency ([2]; turkeys) | muscle mass ([2]; turkeys) | results in turkeys compared with 19-nortestosterone in chickens ([2]; vs chickens (Table III))
C[C@]12CCC(=O)C[C@@H]1CC[C@@H]1[C@@H]2CC[C@]2(C)[C@@H](O)CC[C@@H]12 [5-alpha-DHT, 5-alpha-dihydrotestosterone] | 9.9% | 6.5% | 3.3% | 529 ± 12 g | 1051 ± 15 g | 14.6 ± 0.12 cm | 17.2% | 16.1% | 7.0% | 535 ± 27 g | 1171 ± 50 g | 15.9 ± 0.24 cm | unexpectedly beneficial results |  |  |  |  | 
C[C@]12CC[C@H]3[C@@H](CCC4=CC(=O)CC[C@@H]43)[C@@H]1CC[C@@H]2O [19-Nortestosterone, 19-nortestosterone] |  |  |  |  |  |  |  |  |  |  |  |  |  | unexpectedly superior advantages | a lower relative amount of fat mass | an increase in growth rate and feed efficiency | an increase in muscle mass | unexpectedly superior results
C[C@]12CC[C@H]3[C@@H](CCC4=CC(=O)CC[C@@]43C)[C@@H]1CC[C@@H]2O [Testosterone, testosterone] | 5.8% | 5.1% | 2.6% | 553 ± 11 g | 1067 ± 22 g | 14.7 ± 0.09 cm | 9.4% | 8.6% | 3.1% | 585 ± 13 g | 1275 ± 27 g | 16.5 ± 0.17 cm |  |  |  |  |  | 
